Test results: US3945994A, “Novel acid compounds” (Gist-Brocades N.V., priority 1973, dated 1976)
Converted amounts (≈) assume the structure as drawn. Like-named read-outs stand apart in the source and are kept apart here.

Tests used:
Assay type in all cases: cell-based
[1] = tested on: Streptococcus faecalis L 80; details: Enterococcus faecalis, L80; agar serial dilution, 24 hours at 37°C
Proteus rettgeri A 821 [2] = details: Providencia rettgeri, A821; agar serial dilution, 24 hours at 37°C
Salmonella dublin P 43 = details: Salmonella enterica, P43; agar serial dilution, 24 hours at 37°C
Proteus mirabilis A 1200 = details: A1200, agar serial dilution, 24 hours at 37°C
[3] = tested on: Staphylococcus aureus A 2001; details: A2001, agar serial dilution, 24 hours at 37°C
[4] = tested on: Pseudomonas aeruginosa H 10; details: H10, agar serial dilution, 24 hours at 37°C
[5] = tested on: Pseudomonas aeruginosa 2396; details: agar serial dilution, 24 hours at 37°C
[6] = tested on: Streptococcus haemolyticus A 266; details: A266, agar serial dilution, 24 hours at 37°C
Proteus morganii 2241 = details: Morganella morganii, agar serial dilution, 24 hours at 37°C
Escherichia coli U 20 = details: U20, agar serial dilution, 24 hours at 37°C
[7] = tested on: Salmonella typhimurium R 127; details: Salmonella enterica, agar serial dilution, 24 hours at 37°C
[8] = tested on: Staphylococcus aureus A 355'; details: agar serial dilution, 24 hours at 37°C
[9] = tested on: Diplococcus pneumoniae L 54; details: Streptococcus pneumoniae, L54; agar serial dilution, 24 hours at 37°C
[10] = tested on: Pasteurella multocida A 723; details: A723, agar serial dilution, 24 hours at 37°C
[11] = tested on: Staphylococcus aureus A 321; details: A321, agar serial dilution, 24 hours at 37°C
[12] = tested on: Klebsiella pneumoniae A 809; details: A809, agar serial dilution, 24 hours at 37°C
[13] = tested on: Bacillus subtilis ATCC 6633; details: ATCC6633, agar serial dilution, 24 hours at 37°C
[14] = tested on: Staphylococcus aureus A 2000; details: A2000, agar serial dilution, 24 hours at 37°C
[15] = tested on: Pseudomonas aeruginosa Wyeth A 1058; details: WYETHA1058, agar serial dilution, 24 hours at 37°C
Proteus mirabilis H 3 = details: H3, agar serial dilution, 24 hours at 37°C
Proteus rettgeri A 821 [16] = assay: micro serial dilution test, MIC; details: Providencia rettgeri, A821; micro serial dilution (between brackets), 30°C or 37°C, about 18 hours
[17] = tested on: Salmonella typhimurium R172; details: Salmonella enterica, agar serial dilution, 24 hours at 37°C
[18] = tested on: Haemophilus influenzae A 1030; assay: micro serial dilution test, MIC; details: A1030, micro serial dilution (between brackets), 30°C or 37°C, about 18 hours
[19] = tested on: Streptococcus haemolyticus A 1088; details: A1088, agar serial dilution, 24 hours at 37°C
Proteus mirabilis A1200 = assay: micro serial dilution test, MIC; details: micro serial dilution (between brackets), 30°C or 37°C, about 18 hours
Proteus mirabilis H3 = assay: micro serial dilution test, MIC; details: micro serial dilution (between brackets), 30°C or 37°C, about 18 hours

| MIC [1] [µg/mL] | MIC (Proteus rettgeri A 821 [2]) [µg/mL] | MIC (Salmonella dublin P 43) [µg/mL] | MIC (Proteus mirabilis A 1200) [µg/mL] | MIC [3] [µg/mL] | MIC [4] [µg/mL] | MIC [5] [µg/mL] | MIC (Proteus morganii 2241) [µg/mL] | MIC (Escherichia coli U 20) [µg/mL] | MIC [8] [µg/mL] | MIC [9] [µg/mL] | MIC [10] [µg/mL] | MIC [11] [µg/mL] | MIC [12] [µg/mL] | MIC [13] [µg/mL] | MIC [14] [µg/mL] | MIC [15] [µg/mL] | MIC (Proteus mirabilis H 3) [µg/mL] | MIC [17] [µg/mL] | MIC [18] [µg/mL] | SMILES | further results |
| --- | --- | --- | --- | --- | --- | --- | --- | --- | --- | --- | --- | --- | --- | --- | --- | --- | --- | --- | --- | --- | --- |
| 25 (≈ 49.9 µM) | 3 (≈ 5.99 µM) | 50 (≈ 99.9 µM) | 25 (≈ 49.9 µM) | 6 (≈ 12 µM) | > 100 | 100 (≈ 200 µM) | > 100 | 100 (≈ 200 µM) | 50 (≈ 99.9 µM) | 3 (≈ 5.99 µM) | 0.5 (≈ 0.999 µM) | 3 (≈ 5.99 µM) | > 100 | 1 (≈ 2 µM) | 12.5 (≈ 25 µM) | 50 (≈ 99.9 µM) | 25 (≈ 49.9 µM) | – | – | CCOC(=O)NS(=O)(=O)N[C@@H](C(=O)N[C@@H]1C(=O)N2[C@@H]1SC(C)(C)[C@@H]2C(=O)O)c1ccccc1 [XIX, D-6-[α-(ethoxycarbonylaminosulfonylamino)-benzylcarbonamido]-penicillanic acid] | MIC [6]: 0.25 µg/mL (≈ 0.499 µM); MIC [7]: 100 µg/mL (≈ 200 µM) |
| 25 (≈ 52.9 µM) | < 0.75 | 6 (≈ 12.7 µM) | 3 (≈ 6.35 µM) | 12.5 (≈ 26.5 µM) | 50 (≈ 106 µM) | 25 (≈ 52.9 µM) | 50 (≈ 106 µM) | 25 (≈ 52.9 µM) | 12.5 (≈ 26.5 µM) | 0.25 (≈ 0.529 µM) | 0.12 (≈ 0.254 µM) | 3 (≈ 6.35 µM) | 100 (≈ 212 µM) | 0.5 (≈ 1.06 µM) | 12.5 (≈ 26.5 µM) | 25 (≈ 52.9 µM) | < 0.75 | – | – | CC1(C)S[C@@H]2[C@H](NC(=O)[C@H](NC(=O)NS(=O)(=O)O)c3ccccc3)C(=O)N2[C@H]1C(=O)O [XVII, D-6-[α-{3-(sulfo)-ureido}-benzylcarbonamido]-penicillanic acid] | MIC [6]: 0.12 µg/mL (≈ 0.254 µM); MIC [7]: 50 µg/mL (≈ 106 µM) |
| 3 (≈ 6.03 µM) | – | 25 (≈ 50.2 µM) | 25 (≈ 50.2 µM) | – | > 100 | 100 (≈ 201 µM) | 25 (≈ 50.2 µM) | 100 (≈ 201 µM) | – | 0.75 (≈ 1.51 µM) | 0.75 (≈ 1.51 µM) | 1.5 (≈ 3.01 µM) | 100 (≈ 201 µM) | 0.12 (≈ 0.241 µM) | – | > 100 | 50 (≈ 100 µM) | 100 (≈ 201 µM) | 1.8 (≈ 3.62 µM) | CC(=NS(=O)(=O)N[C@@H](C(=O)N[C@@H]1C(=O)N2[C@@H]1SC(C)(C)[C@@H]2C(=O)O)c1ccccc1)N(C)C [XXI, D-6-[α-{1-(dimethylamino)-ethylideneamino-sulfonamido}-benzylcarbonamido]-penicillanic acid] | MIC (Proteus rettgeri A 821 [16]): 0.6 µg/mL (≈ 1.21 µM); MIC [6]: 0.12 µg/mL (≈ 0.241 µM) |
| 1.5 (≈ 2.94 µM) | – | 50 (≈ 98.1 µM) | 12.5 (≈ 24.5 µM) | 3 (≈ 5.89 µM) | > 100 | > 100 | 50 (≈ 98.1 µM) | 100 (≈ 196 µM) | 6 (≈ 11.8 µM) | 0.5 (≈ 0.981 µM) | 0.5 (≈ 0.981 µM) | 1 (≈ 1.96 µM) | > 100 | 0.12 (≈ 0.235 µM) | 6 (≈ 11.8 µM) | > 100 | 50 (≈ 98.1 µM) | 100 (≈ 196 µM) | 125 (≈ 245 µM) | CN1CCCC1=NS(=O)(=O)N[C@@H](C(=O)N[C@@H]1C(=O)N2[C@@H]1SC(C)(C)[C@@H]2C(=O)O)c1ccccc1 [XXIII, D-6-[α-{1-(methylpyrrolidin-2-ylidene)-amino-sulfonamido}-benzylcarbonamido] -penicillanic acid] | MIC (Proteus rettgeri A 821 [16]): 0.9 µg/mL (≈ 1.77 µM); MIC [6]: 0.06 µg/mL (≈ 0.118 µM) |
| 12.5 (≈ 22.3 µM) | – | 6 (≈ 10.7 µM) | 3 (≈ 5.34 µM) | 6 (≈ 10.7 µM) | 100 (≈ 178 µM) | 25 (≈ 44.5 µM) | 12.5 (≈ 22.3 µM) | 6 (≈ 10.7 µM) | 6 (≈ 10.7 µM) | 50 (≈ 89 µM) | 0.5 (≈ 0.89 µM) | – | 12.5 (≈ 22.3 µM) | 0.5 (≈ 0.89 µM) | 6 (≈ 10.7 µM) | 12.5 (≈ 22.3 µM) | 6 (≈ 10.7 µM) | 25 (≈ 44.5 µM) | 23 (≈ 41 µM) | CC1(C)S[C@@H]2[C@H](NC(=O)[C@H](NC(=O)NS(=O)(=O)NCc3ccccc3)c3ccccc3)C(=O)N2[C@H]1C(=O)O [XXXII, D-6-[α-{3-(benzylaminosulfonyl)-ureido}-benzylcarbonamido]-penicillanic acid] | MIC (Proteus rettgeri A 821 [16]): 0.025 µg/mL (≈ 0.0445 µM); MIC [19]: 0.25 µg/mL (≈ 0.445 µM) |
| – | 3 (≈ 8.59 µM) | 0.8 (≈ 2.29 µM) | 3 (≈ 8.59 µM) | 0.75 (≈ 2.15 µM) | > 100 | 50 (≈ 143 µM) | – | 3 (≈ 8.59 µM) | 1.5 (≈ 4.29 µM) | 0.05 (≈ 0.143 µM) | 0.2 (≈ 0.572 µM) | 0.1 (≈ 0.286 µM) | 50 (≈ 143 µM) | 0.025 (≈ 0.0715 µM) | 1.5 (≈ 4.29 µM) | > 100 | 3 (≈ 8.59 µM) | 3 (≈ 8.59 µM) | – | CC1(C)S[C@@H]2C(NC(=O)C(N)c3ccccc3)C(=O)N2[C@H]1C(=O)O (stereo partly drawn) [ampicillin, 6-(α-aminophenylacetamido) penicillanic acid, reference compound] | – |
| 25 (≈ 66.1 µM) | – | 1.5 (≈ 3.96 µM) | – | 3 (≈ 7.93 µM) | 100 (≈ 264 µM) | 25 (≈ 66.1 µM) | 1.5 (≈ 3.96 µM) | 1.5 (≈ 3.96 µM) | – | 0.5 (≈ 1.32 µM) | 0.25 (≈ 0.661 µM) | 0.75 (≈ 1.98 µM) | > 100 | 0.06 (≈ 0.159 µM) | 3 (≈ 7.93 µM) | 25 (≈ 66.1 µM) | – | 6 (≈ 15.9 µM) | 90 (≈ 238 µM) | CC1(C)S[C@@H]2[C@H](NC(=O)C(C(=O)O)c3ccccc3)C(=O)N2[C@H]1C(=O)O (stereo partly drawn) [carbenicillin, reference compound] | MIC (Proteus rettgeri A 821 [16]): 0.12 µg/mL (≈ 0.317 µM); MIC (Proteus mirabilis A1200): 0.45 µg/mL (≈ 1.19 µM); MIC (Proteus mirabilis H3): 0.6 µg/mL (≈ 1.59 µM); MIC [19]: 0.25 µg/mL (≈ 0.661 µM) |
| 12.5 (≈ 36.8 µM) | 3 (≈ 8.84 µM) | 12.5 (≈ 36.8 µM) | 12.5 (≈ 36.8 µM) | 0.5 (≈ 1.47 µM) | > 100 | > 100 | > 100 | 6 (≈ 17.7 µM) | 1.5 (≈ 4.42 µM) | 0.5 (≈ 1.47 µM) | 6 (≈ 17.7 µM) | 0.75 (≈ 2.21 µM) | 6 (≈ 17.7 µM) | 0.12 (≈ 0.354 µM) | 1.5 (≈ 4.42 µM) | > 100 | 12.5 (≈ 36.8 µM) | 12.5 (≈ 36.8 µM) | 30 (≈ 88.4 µM) | CC(=O)OCC1=C(C(=O)O)N2C(=O)[C@@H](NC(=O)CC#N)[C@H]2SC1 [cephacetril, reference compound] | MIC [19]: 0.5 µg/mL (≈ 1.47 µM) |
| > 100 | 1.5 (≈ 3.7 µM) | 12.5 (≈ 30.8 µM) | 12.5 (≈ 30.8 µM) | 12.5 (≈ 30.8 µM) | > 100 | > 100 | 100 (≈ 247 µM) | 1.5 (≈ 3.7 µM) | 12.5 (≈ 30.8 µM) | 6 (≈ 14.8 µM) | 50 (≈ 123 µM) | 12.5 (≈ 30.8 µM) | 6 (≈ 14.8 µM) | 0.25 (≈ 0.617 µM) | 12.5 (≈ 30.8 µM) | > 100 | 25 (≈ 61.7 µM) | 12.5 (≈ 30.8 µM) | 125 (≈ 308 µM) | CC(=O)OCC1=C(C(=O)O)N2C(=O)[C@@H](NC(=O)[C@H](N)c3ccccc3)[C@H]2SC1 [cephaloglycin, 7-(α-aminophenylacetamido) cephalosporanic acid, reference compound] | MIC [19]: 0.25 µg/mL (≈ 0.617 µM) |
| 12.5 (≈ 27.5 µM) | – | 1.5 (≈ 3.3 µM) | 6 (≈ 13.2 µM) | 0.5 (≈ 1.1 µM) | > 100 | > 100 | 25 (≈ 55 µM) | 1.5 (≈ 3.3 µM) | 1.5 (≈ 3.3 µM) | 0.25 (≈ 0.55 µM) | 1.5 (≈ 3.3 µM) | 0.25 (≈ 0.55 µM) | 1.5 (≈ 3.3 µM) | 0.25 (≈ 0.55 µM) | 0.75 (≈ 1.65 µM) | > 100 | 6 (≈ 13.2 µM) | 3 (≈ 6.6 µM) | – | Cc1nnc(SCC2=C(C(=O)O)N3C(=O)[C@@H](NC(=O)Cn4cnnn4)[C@H]3SC2)s1 [cephazolin, reference compound] | MIC (Proteus rettgeri A 821 [16]): 1.2 µg/mL (≈ 2.64 µM); MIC [19]: 0.12 µg/mL (≈ 0.264 µM) |
